Values of other authors, collected in patent US8591947B2, “Dual controlled release dosage form” (Osmotica Kereskedelmi és Szolgáltató KFT, priority 2001, dated 2013).
Counter-ions that a name gives are not always drawn.

| Compound | Solubility of component in water (U.S.P. term) |
| --- | --- |
| CC(=O)Nc1ccc(O)cc1 [acetaminophen] | very slightly soluble |
| Nc1nc2c(ncn2COCCO)c(=O)[nH]1 [acyclovir] | slightly soluble |
| CC(C)(C)NCC(O)c1ccc(O)c(CO)c1 (centres unmarked) [albuterol] | sparingly soluble |
| Oc1ncnc2[nH]ncc12 [allopurinol] | very slightly soluble |
| CN(C)CCC=C1c2ccccc2CCc2ccccc21 [amitriptyline] | freely soluble |
| CCOC(=O)C1=C(COCCN)NC(C)=C(C(=O)OC)C1c1ccccc1Cl (centres unmarked) [amlodipine besylate] | slightly soluble |
| CC(=O)Oc1ccccc1C(=O)O [aspirin] | slightly soluble |
| CC[C@H]1OC(=O)[C@H](C)[C@@H](O[C@H]2C[C@@](C)(OC)[C@@H](O)[C@H](C)O2)[C@H](C)[C@@H](O[C@@H]2O[C@H](C)C[C@H](N(C)C)[C@H]2O)[C@](C)(O)C[C@@H](C)CN(C)[C@H](C)[C@@H](O)[C@]1(C)O [azithromycin dihydrate] | practically insoluble |
| CCOC(=O)[C@H](CCc1ccccc1)N[C@H]1CCc2ccccc2N(CC(=O)O)C1=O [benazepril] | soluble |
| CC(NC(C)(C)C)C(=O)c1cccc(Cl)c1 (centres unmarked) [bupropion HCl] | soluble |
| O=C1CC2(CCCC2)CC(=O)N1CCCCN1CCN(c2ncccn2)CC1 [buspirone HCl] | freely soluble |
| C[C@H](CS)C(=O)N1CCC[C@H]1C(=O)O [captopril] | freely soluble |
| NC(=O)N1c2ccccc2C=Cc2ccccc21 [carbamazepine] | practically insoluble |
| COc1ccccc1OCCNCC(O)COc1cccc2[nH]c3ccccc3c12 (centres unmarked) [carvedilol] | practically insoluble |
| Cc1ccc(-c2cc(C(F)(F)F)nn2-c2ccc(S(N)(=O)=O)cc2)cc1 [celecoxib] | practically insoluble |
| CN/C(=N/CCSCc1nc[nH]c1C)NC#N [cimetidine] | sparingly soluble |
| COc1cc(N)c(Cl)cc1C(=O)NC1CCN(CCCOc2ccc(F)cc2)CC1OC (centres unmarked) [cisapride monohydrate] | practically insoluble |
| CN(C)CCCC1(c2ccc(F)cc2)OCc2cc(C#N)ccc21 (centres unmarked) [citalopram] | sparingly soluble |
| Clc1cccc(Cl)c1N=C1NCCN1 [clonidine HCl] | soluble |
| COC(=O)[C@H](c1ccccc1Cl)N1CCc2sccc2C1 [clopidogrel bisulfate] | practically insoluble |
| CN(C)CCC=C1c2ccccc2C=Cc2ccccc21 [cyclobenzaprine HCl] | freely soluble |
| COc1ccc([C@@H]2Sc3ccccc3N(CCN(C)C)C(=O)[C@@H]2OC(C)=O)cc1 [diltiazem HCl] | freely soluble |
| COc1cc2nc(N3CCN(C(=O)C4COc5ccccc5O4)CC3)nc(N)c2cc1OC (centres unmarked) [doxazosin mesylate] | slightly soluble |

| Compound | Solubility of component in water (U.S.P. term) |
| --- | --- |
| C[C@H]1c2cccc(O)c2C(=O)C2=C(O)[C@]3(O)C(=O)C(C(N)=O)=C(O)[C@@H](N(C)C)[C@@H]3[C@@H](O)[C@@H]21 [doxycycline hydrate] | soluble |
| CCOC(=O)[C@H](CCc1ccccc1)N[C@@H](C)C(=O)N1CCC[C@H]1C(=O)O [enalapril maleate] | sparingly soluble |
| CCOC(=O)C1=C(C)NC(C)=C(C(=O)OC)C1c1cccc(Cl)c1Cl (centres unmarked) [felodipine] | practically insoluble |
| OC(Cn1cncn1)(Cn1cncn1)c1ccc(F)cc1F [fluconazole] | slightly soluble |
| CCC(=O)O[C@]1(C(=O)SCF)[C@H](C)C[C@H]2[C@@H]3C[C@H](F)C4=CC(=O)C=C[C@]4(C)[C@@]3(F)[C@@H](O)C[C@@]21C [fluticasone propionate] | practically insoluble |
| CCC(=O)O[C@@H](O[P@](=O)(CCCCc1ccccc1)CC(=O)N1C[C@H](C2CCCCC2)C[C@H]1C(=O)O)C(C)C [fosinopril sodium] | soluble |
| NCC1(CC(=O)O)CCCCC1 [gabapentin] | freely soluble |
| COc1ccc2c3c1O[C@H]1C[C@@H](O)C=C[C@@]31CCN(C)C2 [galantamine HBr] | sparingly soluble |
| COc1ccc(Cl)cc1C(=O)NCCc1ccc(S(=O)(=O)NC(=O)NC2CCCCC2)cc1 [glyburide] | practically insoluble |
| COc1ccc2c3c1O[C@H]1C(=O)CC[C@H]4[C@@H](C2)N(C)CC[C@]314.O=C(O)C(O)C(O)C(=O)O [hydrocodone bitartrate] | soluble |
| OCCOCCN1CCN(C(c2ccccc2)c2ccc(Cl)cc2)CC1 (centres unmarked) [hydroxyzine] | very soluble |
| CC(C)Cc1ccc(C(C)C(=O)O)cc1 (centres unmarked) [ibuprofen] | very slightly soluble |
| O=[N+]([O-])O[C@@H]1CO[C@H]2[C@@H]1OC[C@@H]2O [isosorbide mononitrate] | freely soluble |
| Cc1c(OCC(F)(F)F)ccnc1C[S+]([O-])c1nc2ccccc2[nH]1 (centres unmarked) [lansoprazole] | practically insoluble |
| CC[C@@H](C(N)=O)N1CCCC1=O [levetiracetam] | very soluble |
| NCCCC[C@H](N[C@@H](CCc1ccccc1)C(=O)O)C(=O)N1CCC[C@H]1C(=O)O [lisinopril] | soluble |
| CCCCc1nc(Cl)c(CO)n1Cc1ccc(-c2ccccc2-c2nn[nH]n2)cc1 [losartan potassium] | freely soluble |
| Cc1cccc(CN2CCN(C(c3ccccc3)c3ccc(Cl)cc3)CC2)c1 (centres unmarked) [meclizine HCl] | soluble |
| CC12CC3CC(C)(C1)CC(N)(C3)C2 [memantine HCl] | slightly soluble |
| COCCc1ccc(OCC(O)CNC(C)C)cc1 (centres unmarked) [metoprolol tartrate] | very soluble |
| Cc1ncc([N+](=O)[O-])n1CCO [metronidazole] | sparingly soluble |
| C[C@@H]1C[C@H]2[C@@H]3CCC4=CC(=O)C=C[C@]4(C)[C@@]3(Cl)[C@@H](O)C[C@]2(C)[C@@]1(OC(=O)c1ccco1)C(=O)CCl [mometasone furoate] | practically insoluble |
| COC(=O)C1=C(C)NC(C)=C(C(=O)OCC(C)C)C1c1ccccc1[N+](=O)[O-] (centres unmarked) [nisoldipine] | practically insoluble |

| Compound | Solubility of component in water (U.S.P. term) |
| --- | --- |
| Cc1cc2c(s1)Nc1ccccc1N=C2N1CCN(C)CC1 [olanzapine] | practically insoluble |
| COc1ccc2[nH]c([S+]([O-])Cc3ncc(C)c(OC)c3C)nc2c1 (centres unmarked) [omeprazole] | very slightly soluble |
| COc1ccc2c3c1O[C@H]1C(=O)CC[C@@]4(O)[C@@H](C2)N(C)CC[C@]314 [oxycodone] | soluble |
| Fc1ccc([C@@H]2CCNC[C@H]2COc2ccc3c(c2)OCO3)cc1 [paroxetine HCl] | slightly soluble |
| O=C1N=C([O-])NC1(c1ccccc1)c1ccccc1.[Na+] [phenyloin sodium] | soluble |
| CC(C)NCC(O)COc1cccc2[nH]ccc12 (centres unmarked) [pindolol] | practically insoluble |
| CCc1ccc(CCOc2ccc(CC3SC(=O)NC3=O)cc2)nc1 (centres unmarked) [pioglitazone HCl] | practically insoluble |
| CC[C@H](C)C(=O)O[C@H]1C[C@H](O)C=C2C=C[C@H](C)[C@H](CC[C@@H](O)C[C@@H](O)CC(=O)O)[C@H]21 [pravastatin sodium] | soluble |
| C[C@]12C=CC(=O)C=C1CC[C@@H]1[C@@H]2C(=O)C[C@@]2(C)[C@H]1CC[C@]2(O)C(=O)CO [prednisone] | very slightly soluble |
| CC(CN1c2ccccc2Sc2ccccc21)N(C)C (centres unmarked) [promethazine HCl] | soluble |
| CCC(=O)O[C@](Cc1ccccc1)(c1ccccc1)[C@H](C)CN(C)C.Cl [propoxiphene HCl] | freely soluble |
| CC(C)NCC(O)COc1cccc2ccccc12 (centres unmarked) [propranolol HCl] | soluble |
| CCOC(=O)[C@H](CCc1ccccc1)N[C@@H](C)C(=O)N1Cc2ccccc2C[C@H]1C(=O)O [quinapril] | freely soluble |
| COCCCOc1ccnc(C[S+]([O-])c2nc3ccccc3[nH]2)c1C (centres unmarked) [rabeprazole sodium] | very soluble |
| Cl.O=C(c1ccc(OCCN2CCCCC2)cc1)c1c(-c2ccc(O)cc2)sc2cc(O)ccc12 [ralozifene HCL] | very slightly soluble |
| CCOC(=O)[C@H](CCc1ccccc1)N[C@@H](C)C(=O)N1[C@H](C(=O)O)C[C@@H]2CCC[C@@H]21 [ramipril] | slightly soluble |
| CNC(=C[N+](=O)[O-])NCCSCc1ccc(CN(C)C)o1 [ranitidine HCl] | very soluble |
| Cc1nc2n(c(=O)c1CCN1CCC(c3noc4cc(F)ccc34)CC1)CCCC2 [risperidone] | practically insoluble |
| CCN(C)C(=O)Oc1cccc([C@H](C)N(C)C)c1 [rivastigmine hydrogen tartrate] | very soluble |
| CS(=O)(=O)c1ccc(C2=C(c3ccccc3)C(=O)OC2)cc1 [rofecoxib] | practically insoluble |
| CN(CCOc1ccc(CC2SC(=O)NC2=O)cc1)c1ccccn1 (centres unmarked) [rosiglitazone maleate] | soluble |
| OCc1cc(C(O)CNCCCCCCOCCCCc2ccccc2)ccc1O (centres unmarked) [salmeterol] | sparingly soluble |
